In US20090297579A1, “Control of Cells and Cell Multipotentiality in Three Dimensional Matrices” (Massachusetts Institute of Technology, priority 2006, published 2009):
“Also recorded” adds a separate entry of the source.

Columns and labels:
MEFs [1] = experiment: Cell cycle arrest assay with staurosporine: 3D-bilateral structure development / cell mass contraction; assay type: cell-based, mouse
Description: (§1) Cell Cycle Arrest Assays with Staurosporine. Cultures of MEFs were incubated in FM with Staurosporine (20 nM) during 7 days while controls were incubated in FM. At day 6, a pulse of BrdU was applied overnight. MEFs were fixed at day 7 and stained with a mouse monoclonal antibody IGgl anti-BrdU FITC-conjugated (BD PharMingen, 33284×). To assess the dose-response effect of staurosporine on MEFs, these were incubated with different concentrations of staurosporine (0, 2, 20 nM) during 14 days. Visual inspection of the cell mass contraction along these 14 days was performed.
(§2) (A) MEFs were incubated with and without staurosporine (20 nM) during 7 days. Proliferation was studied by means of a BrdU pulse followed by immunostaining against BrdU. (B) MEFs were incubated, during 14 days, with different concentrations of staurosporine (0, 2, 20 nM) to further analyze the effect of proliferation in the contraction phenomenon.

MEFs [2] = experiment: BrdU pulse proliferation assay with staurosporine; assay type: cell-based, mouse; conditions: staurosporine 20 nM, 7 days, BrdU pulse at day 6
Description: as §1, §2

[3] = tested on: EB-derived cells (mouse embryonic stem cell line R1 Oct4-GFP); experiment: Alkaline phosphatase activity of EB-derived cells in 3D culture; assay type: cell-based; conditions: EB-dc 3D cultures
Description: Fluorescence microscopy was used to monitor GFP expression during EB formation. The EB were harvested and allowed to settle in a tube. The medium was removed and EB were gently treated with trypsin-EDTA 1× (GIBCO). The resultant EB-derived cells were encapsulated into the peptide scaffold (3D cultures) at a final concentration of 2×10^6 cells/mL, as described above, and cultured in control medium (ES medium in the absence of LIF). 2D cultures, in regular culture plates, were also performed as controls. The EB-derived cells were plated into 12-well plate containing control medium (ES medium in the absence of LIF) at a concentration of 760,000 cells/mL (200,000 cells/cm^2). […]
Alkaline phosphatase activity. Alkaline phosphatase enzyme activity (ALP) of 2D and 3D cultures was measured in triplicate cultures before and after the osteogenic differentiation. […] ALP enzyme activity was calculated after measuring the absorbance of the reaction product formed, p-nitrophenol, at 405 nm on a spectrophotometer. […] Total protein levels were determined using a protein detection kit (Bio-Rad) based on the method of Lowry in order to normalize total protein levels. […]

[4] = tested on: Mouse Embryonic Fibroblasts (MEFs); experiment: Gel contraction and bilateral/embryoid-like structure development of MEFs in self-assembling peptide scaffold; assay type: cell-based; conditions: for Gel contraction: Table 4, 10 days
Description: In other experiments with RAD16-I, MEF cells (<8th passage) were trypsinized from 75 cm2 culture flasks, suspended in sucrose 20% and mixed with the self-assembling peptide RAD16-I (BD, Puramatrix) 0.5% to obtain a final MEF concentration of 2·10^6 cells/ml and 0.25% of RAD16-I. This suspension was seeded into inserts (Millipore) and jellified by addition of FM. After jellification, FM was added on the hydrogel. Incubation was performed at 37° C. with 5% CO2 and medium was changed every 2 days.
The shape presents bilateral symmetry (3D-bilateral) and resembles some aspects of a vertebrate embryo undergoing axis formation. Collagen I cultures presented a different morphology, basically consisting of a small spherical ball produced by equal contraction forces, without any distinctive shape or pattern.
The percentage of self-assembling peptide used for these experiments was half of the amount we described above (0.25% vs. 0.5%). […] Thus, in this example, two different parameters that may affect the development of such embryoid-like structures were studied: self-assembling peptide scaffold stiffness and fetal bovine serum concentration. […] Gel contraction and the presence of embryoid-like structure development were analyzed. nt=condition not tested.

[5] = tested on: Mouse Embryonic Fibroblasts (MEF); experiment: Alkaline phosphatase activity of MEFs in 3D culture; assay type: cell-based
Description: Osteogenic differentiation of Mouse Embryonic Fibroblasts (MEF). Mouse embryonic fibroblasts (MEFs) were purchased from ATCC(SCRC-1008). They were isolated from mouse embryos derived from C57BL/6 mothers at 14 days of gestation (E14). The MEFs were expanded prior to osteogenic induction in MEF culture medium of DMEM (high glucose) containing 10% FBS (fetal bovine serum, Hyclone), 4 mM L-glutamine (GIBCO), and 1% (v/v) penicillin-streptomycin (GIBCO). The differentiation experiments were carried out using cells between passages 3 and 5. The MEFs were encapsulated into the peptide scaffold (3D cultures) at a final concentration of 2×10^6 cells/mL, as described above (3D cultures). 2D cultures were also performed by culturing MEFs into 12-well regular culture plates. Both the 2D and 3D cultures were maintained in MEF culture medium for 2-4 days (FIG. 1B). Next, the MEF medium was changed by osteogenic medium (same as in mESC osteogenic induction section). Also, […] of 1-alpha,25-(OH)2 vitamin D3 (Sigma) was added to the osteogenic medium as previously described for mouse-derived NIH 3T3 fibroblasts. The cultures were maintained for different time periods (FIG. 1B, STAGE 3) in osteogenic medium at 37° C. in humidified air with 5% CO2. The medium was regularly exchanged with fresh osteogenic medium.
Alkaline phosphatase activity. Alkaline phosphatase enzyme activity (ALP) of 2D and 3D cultures was measured in triplicate cultures before and after the osteogenic differentiation. The cultures were rinsed twice with […] (TBS, 50 mM Tris base, 0.15 M NaCl, pH 7.4) and then the cells were incubated with 5 mM p-nitrophenyl phosphate (p-nitrophenyl phosphate disodium salt tablets, Sigma) solution in glycine buffer (50 mM glycine, 1 mM MgCl2, pH 10.5) for 30 min at 37° C. ALP enzyme activity was calculated after measuring the absorbance of the reaction product formed, p-nitrophenol, at 405 nm on a spectrophotometer. Standards were prepared by consecutively diluting 10 mM p-nitrophenol (Sigma) solution in glycine buffer at concentrations ranging from 0.0001 mM to 0.06 mM. Total protein levels were determined using a protein detection kit (Bio-Rad) based on the method of Lowry in order to normalize total protein levels. The final APL activity was expressed in units/mg of protein (one unit will hydrolyze 1 micromoles of p-nitrophenyl phosphate per minute at pH 10.5).

Molecule	Effect on 3D-bilateral structure development at diluted concentrations (MEFs [1]; staurosporine 0, 2, 20 nM, 14 days)	Development of the 3D-bilateral structure (MEFs [1]; staurosporine 20 nM, 7 days, MEFs in RAD16-I)	Incorporation of BrdU (MEFs [2])	ALP activity ([3]; control (no osteogenic induction))	ALP activity ([3]; osteogenic-induced)	Contraction ([4]; Table 3, 0.25% RAD, 2% FBS)	Contraction ([4]; Table 3, 0.25% RAD, 10% FBS)	Contraction ([4]; Table 3, 0.25% RAD, 15% FBS)	Structure formation ([4]; Table 3, 0.25% RAD, 15% FBS)	Contraction ([4]; Table 3, 0.5% RAD, 2% FBS)	Contraction ([4]; Table 3, 0.5% RAD, 10% FBS)	Contraction ([4]; Table 3, 0.5% RAD, 15% FBS)	Gel contraction ([4]; peptide gel 0.25%, FBS 2%)	Gel contraction ([4]; peptide gel 0.25%, FBS 15%)	Gel contraction ([4]; peptide gel 0.5%, FBS 15%)	ALP activity ([5]; MEF 3D control cultures, after culture)	ALP activity ([5]; MEF 3D control cultures, initial)	ALP activity ([5]; MEF 3D osteogenic cultures, after osteogenic induction)	ALP activity ([5]; MEF 3D osteogenic cultures, initial)
CN[C@@H]1C[C@H]2O[C@@](C)([C@@H]1OC)n1c3ccccc3c3c4c(c5c6ccccc6n2c5c31)C(=O)NC4 [Staurosporine]	dose-response inhibitory effect	clearly abrogated; also recorded: prevented	no incorporation	–	–	–	–	–	–	–	–	–	–	–	–	–	–	–	–
AcN-RADARADARADARADA-CONH2 [Peptide]	–	–	–	190.2 U/mg	87 U/mg	No contraction	Low	High contraction;	bilateral structures	No contraction	Very low	Low	Low	High	Low	68.1 U/mg	1.8 U/mg	118.3 U/mg	1.5 U/mg
